As usually defined, the IC50 is the midpoint of a concentration-inhibition curve. A lower IC50 goes with greater potency.

Here are results for two compounds from ChEMBL document CHEMBL3098003, “Structure-based design of 2-aminopyridine oxazolidinones as potent and selective tankyrase inhibitors” (ACS Med Chem Lett, 2013).

The subject of series [1] is Mus musculus. Nature of the series: In vivo inhibition of tankyrase-mediated axin2 gene expression in tumor of athymic nude mouse xenografted with human DLD1 cells at 200 mg/kg, po bid for 3 days by STF assay. The class given is functional, organism-based. The arrangement: dose 200 mg/kg. The following applies: DLD-1.
Series [2] in a line: Terminal plasma concentration in athymic nude mouse xenografted with human DLD1 cells at 200 mg/kg, po bid for 3 days. The following applies: read-out: Cp(T). It counts as ADME, organism-based, DLD-1. The arrangement: dose 200 mg/kg, route oral. (In general: A xenograft is tissue or cells of one species grown in another, often human tumour cells in immunodeficient mice.)
The subject of series [3] is Mus musculus. Kind of series: In vivo inhibition of tankyrase-mediated Wnt gene transcription in tumor of athymic nude mouse xenografted with human DLD1 cells at 200 mg/kg, po bid for 3 days by STF assay. It counts as functional, organism-based. Set-up: dose 200 mg/kg. The following applies: DLD-1.
The nature of series [4]: Intrinsic clearance in rat liver microsomes. The class given is ADME. The following applies: read-out: CLH. A general note: Liver microsomes are vesicles of endoplasmic reticulum, rich in cytochrome P450 enzymes.
Series [5] deals with Mus musculus. Nature of the series: Toxicity in athymic nude mouse assessed as diarrhea at 100 mg/kg, po bid for 8 days. The following applies: in vivo, 192 h. Set-up: dose 100 mg/kg, route oral. It counts as organism-based.
In series [6] the test system is Mus musculus. Nature of the series: Toxicity in athymic nude mouse assessed as hunched posture at 100 mg/kg, po bid for 8 days. The following applies: in vivo, 192 h. The arrangement: dose 100 mg/kg, route oral. It counts as organism-based.
The subject of series [7] is Mus musculus. Nature of the series: Toxicity in athymic nude mouse assessed as lethargy at 100 mg/kg, po bid for 8 days. Set-up: dose 100 mg/kg, route oral. The following applies: in vivo, 192 h. The class given is organism-based.
Series [8] concerns Mus musculus. Kind of series: Toxicity in athymic nude mouse assessed as cold at 100 mg/kg, po bid for 8 days. It counts as organism-based. Set-up: dose 100 mg/kg, route oral. The following applies: in vivo, 192 h.
Series [9] can be described thus: Terminal plasma concentration in athymic nude mouse xenografted with human DLD1 cells at 50 mg/kg, po bid for 3 days. The class given is ADME, organism-based, DLD-1. Set-up: dose 50 mg/kg, route oral. The following applies: read-out: Cp(T).
The target in series [10] is Muscarinic acetylcholine receptor M1 (Homo sapiens, UniProt P11229). Nature of the series: Binding affinity to muscarinic M1 receptor (unknown origin).
Another series addresses D(2) dopamine receptor (Homo sapiens, UniProt P14416). Nature of the series: Binding affinity to dopamine D2 receptor (unknown origin).
The target in series [11] is 5-hydroxytryptamine receptor 1A (Homo sapiens, UniProt P08908). Nature of the series: Binding affinity to 5-HT1A receptor (unknown origin).

The source made the active and inactive calls. No cut-off for these calls is given here.

Chain of Muscarinic acetylcholine receptor M1 (P11229 whole entry): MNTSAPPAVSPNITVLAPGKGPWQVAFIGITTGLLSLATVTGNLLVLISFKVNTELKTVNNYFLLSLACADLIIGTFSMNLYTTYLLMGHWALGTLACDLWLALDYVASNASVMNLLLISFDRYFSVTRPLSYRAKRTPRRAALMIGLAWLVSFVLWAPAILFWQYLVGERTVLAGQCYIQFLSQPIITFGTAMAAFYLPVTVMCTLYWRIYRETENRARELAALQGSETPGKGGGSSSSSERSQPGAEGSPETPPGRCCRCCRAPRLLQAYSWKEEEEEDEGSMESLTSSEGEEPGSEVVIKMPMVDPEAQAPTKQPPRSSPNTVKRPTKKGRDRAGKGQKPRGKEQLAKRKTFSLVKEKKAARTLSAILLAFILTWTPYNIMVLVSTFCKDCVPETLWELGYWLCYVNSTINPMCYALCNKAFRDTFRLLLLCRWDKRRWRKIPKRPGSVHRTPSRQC
Chain of D(2) dopamine receptor (P14416 whole entry): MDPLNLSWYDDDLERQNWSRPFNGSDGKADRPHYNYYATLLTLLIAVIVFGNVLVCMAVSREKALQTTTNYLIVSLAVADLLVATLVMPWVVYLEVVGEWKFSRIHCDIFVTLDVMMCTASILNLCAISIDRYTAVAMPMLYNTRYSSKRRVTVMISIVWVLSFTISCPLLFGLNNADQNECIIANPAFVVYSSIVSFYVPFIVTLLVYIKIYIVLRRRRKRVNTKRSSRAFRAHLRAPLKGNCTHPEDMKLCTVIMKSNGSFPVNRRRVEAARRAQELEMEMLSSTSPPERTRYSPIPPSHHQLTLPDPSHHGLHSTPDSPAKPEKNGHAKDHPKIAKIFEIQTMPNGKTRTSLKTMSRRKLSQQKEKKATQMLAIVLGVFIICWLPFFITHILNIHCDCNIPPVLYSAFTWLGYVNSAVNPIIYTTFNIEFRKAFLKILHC
Chain of 5-hydroxytryptamine receptor 1A (P08908 whole entry): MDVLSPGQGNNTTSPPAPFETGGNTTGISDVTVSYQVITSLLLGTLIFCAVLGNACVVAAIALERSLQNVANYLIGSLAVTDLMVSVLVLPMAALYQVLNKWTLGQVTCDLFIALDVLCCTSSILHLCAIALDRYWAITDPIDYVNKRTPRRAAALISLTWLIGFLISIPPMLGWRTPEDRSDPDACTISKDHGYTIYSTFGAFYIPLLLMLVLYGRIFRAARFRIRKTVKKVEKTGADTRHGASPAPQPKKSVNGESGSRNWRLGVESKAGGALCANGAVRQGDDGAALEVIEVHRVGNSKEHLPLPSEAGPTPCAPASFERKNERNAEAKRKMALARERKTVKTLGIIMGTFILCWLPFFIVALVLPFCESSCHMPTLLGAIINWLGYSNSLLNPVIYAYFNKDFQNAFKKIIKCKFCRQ

With `CC1(C)OC(=O)N(c2ccc(-c3cnc(N)c(-c4ncccn4)c3)cc2)[C@H]1c1ccccc1`, the inhibition entry in the series with Mus musculus [1] and with Mus musculus [3] was “Active” each time. Moreover, the concentration at 72 h in series [2] was 22.1 µM. Also, in series [4], the microsomal CLint is 48 µL/min/mg.
With `CC1(C)OC(=O)N([C@H]2CC[C@H](c3cnc(N)c(-c4ncccn4)c3)CC2)[C@H]1c1ccccc1`, the Activity entry with Mus musculus [5], in the series with Mus musculus [6], in the series on Mus musculus [7] and with Mus musculus [8] was “Toxic” throughout. In addition, in series [9], the concentration at 72 h came to 0.12 µM. The IC50 (in series [10]; at D(2) dopamine receptor; in [11]) was over 48.5 µM each time.
